Measured values reported in ChEMBL document CHEMBL4038293, “Synthesis and SAR studies of 3,6-disubstituted indazole derivatives as potent hepcidin production inhibitors” (Bioorg Med Chem Lett, 2017).
Active and inactive are the calls of the source. The calls are words filed in the database; no cut-off is given here.

test system: not listed separately; experiment: Cmax in C57BL/6J mouse at 30 mg/kg, ip; format: ADME, organism-based; design: dose 30 mg/kg, route intraperitoneal; details: in vivo

| Cmax | Structure (SMILES) |
| --- | --- |
| 2640 ng/mL | O=C(Nc1n[nH]c2cc(-c3ccc(O)cc3)ccc12)c1ccc(OCCN2CCOCC2)cc1 |

test system: not listed separately; experiment: AUC in C57BL/6J mouse at 30 mg/kg, ip; format: ADME, organism-based; details: in vivo

| AUC | Structure (SMILES) |
| --- | --- |
| 6930 ng·h/mL | O=C(Nc1n[nH]c2cc(-c3ccc(O)cc3)ccc12)c1ccc(OCCN2CCOCC2)cc1 |

species: Homo sapiens; experiment: Inhibition of BMP6/hemojuvelin signalling pathway in human HepG2 cells assessed as reduction in hepcidin mRNA expression at 30 uM; format: cell-based; details: not given

| Structure (SMILES) | inhibition |
| --- | --- |
| O=C(Nc1n[nH]c2cccc(-c3ccccc3)c12)C1CC1 | 8% |
| O=C(Nc1n[nH]c2cc(-c3ccccc3)ccc12)C1CC1 | 23% |
| O=C(Nc1n[nH]c2ccc(-c3ccccc3)cc12)C1CC1 | -4% |

test system: not listed separately; experiment: Inhibition of BMP6/hemojuvelin signalling pathway in human HepG2 cells assessed as reduction in hepcidin mRNA expression; format: cell-based; details: not given

| Structure (SMILES) | IC50 |
| --- | --- |
| O=C(Nc1n[nH]c2cc(-c3ccc(O)cc3)ccc12)c1ccc(Cl)cc1 | 980 nM |
| COc1ccc(C(=O)Nc2n[nH]c3cc(-c4ccc(O)cc4)ccc23)cc1 | 420 nM |
| Nc1n[nH]c2cc(-c3ccc(O)cc3)ccc12 | 1000 nM |
| O=C(Nc1n[nH]c2cc(-c3ccc(CO)cc3)ccc12)C1CC1 | 1400 nM |
| Nc1ccc(-c2ccc3c(NC(=O)C4CC4)n[nH]c3c2)cc1 | 4500 nM |
| Oc1ccc(-c2ccc3cn[nH]c3c2)cc1 | > 3000 nM |
| O=C(Nc1n[nH]c2ccc(-c3ccc4c(c3)CNC4)cc12)C1CC1 | 3100 nM |
| O=C(Nc1n[nH]c2cc(C3=CCC(O)CC3)ccc12)C1CC1 (centres undefined) | > 30000 nM |
| O=C(Nc1n[nH]c2cc(-c3ccc(O)cc3)ccc12)C1CCCCC1 | 930 nM |
| CS(=O)(=O)Nc1ccc(-c2ccc3c(NC(=O)C4CC4)n[nH]c3c2)cc1 | > 30000 nM |
| O=S(=O)(Nc1n[nH]c2cc(-c3ccc(O)cc3)ccc12)C1CC1 | > 10000 nM |
| COC(=O)c1ccc(C(=O)Nc2n[nH]c3cc(-c4ccc(O)cc4)ccc23)cc1 | 1100 nM |
| O=C(Nc1n[nH]c2cc(-c3ccc(O)cc3)ccc12)c1ccc(OCCN2CCOCC2)cc1 | 130 nM |
| CN1CCN(c2ccc(C(=O)Nc3n[nH]c4cc(-c5ccc(O)cc5)ccc34)cc2)CC1 | 85 nM |

The next lines start with the values.

| IC50 | Structure (SMILES) |
| --- | --- |
| > 30000 nM | O=C(Nc1n[nH]c2cc(-c3ccccc3O)ccc12)C1CC1 |
| 1600 nM | Oc1ccc(-c2ccc3c(NCC4CC4)n[nH]c3c2)cc1 |
| 120 nM | O=C(Nc1n[nH]c2cc(-c3ccc(O)cc3)ccc12)c1ccc(OCCN2CCCCC2)cc1 |
| 4900 nM | O=C(Nc1n[nH]c2cc(-c3cccc(O)c3)ccc12)C1CC1 |
| 330 nM | CN(C)c1ccc(C(=O)Nc2n[nH]c3cc(-c4ccc(O)cc4)ccc23)cc1 |
| > 30000 nM | O=C(Nc1n[nH]c2cc(Cc3ccc(O)cc3)ccc12)C1CC1 |
| 160 nM | CN(C)CCOc1ccc(C(=O)Nc2n[nH]c3cc(-c4ccc(O)cc4)ccc23)cc1 |
| > 10000 nM | O=C(O)c1ccc(-c2ccc3c(NC(=O)C4CC4)n[nH]c3c2)cc1 |
| 700 nM | COc1cccc(C(=O)Nc2n[nH]c3cc(-c4ccc(O)cc4)ccc23)c1 |
| > 30000 nM | COc1ccccc1C(=O)Nc1n[nH]c2cc(-c3ccc(O)cc3)ccc12 |
| > 30000 nM | O=C(Nc1[nH]nc2cc(-c3ccc(O)nc3)ccc12)C1CC1 |
| 940 nM | O=C(Nc1n[nH]c2cc(-c3ccc(O)cc3)ccc12)NC1CC1 |
| 470 nM | O=C(Nc1n[nH]c2cc(-c3ccc(O)cc3)ccc12)c1ccccc1 |
| 400 nM | O=C(Nc1n[nH]c2cc(-c3ccc(O)cc3)ccc12)C1CC1 |
| 1100 nM | CC(=O)Nc1n[nH]c2cc(-c3ccc(O)cc3)ccc12 |
| 4200 nM | O=C(NC1CC1)c1n[nH]c2cc(-c3ccc(O)cc3)ccc12 |

test system: not listed separately; experiment: Metabolic stability in mouse liver microsomes assessed as compound remaining at 0.5 mg/mL after 0.5 hrs; format: ADME, microsome; details: read-out: Stability

| remaining at 0.5 h | Structure (SMILES) |
| --- | --- |
| 89% | O=C(Nc1n[nH]c2cc(-c3ccc(O)cc3)ccc12)c1ccc(OCCN2CCOCC2)cc1 |

test system: not listed separately; experiment: Lipophilicity, log D of the compound; format: physicochemical; details: octanol/water

| logD | Structure (SMILES) |
| --- | --- |
| 3.4 | O=C(Nc1n[nH]c2cc(-c3ccc(O)cc3)ccc12)c1ccc(OCCN2CCOCC2)cc1 |

test system: not listed separately; experiment: Tmax in C57BL/6J mouse at 30 mg/kg, ip; format: ADME, organism-based; details: in vivo

| Tmax | Structure (SMILES) |
| --- | --- |
| 1.33 h | O=C(Nc1n[nH]c2cc(-c3ccc(O)cc3)ccc12)c1ccc(OCCN2CCOCC2)cc1 |

test system: Mus musculus; experiment: Anti-inflammatory activity in C57BL/6J mouse assessed as reduction in IL-6 induced serum hepcidin level at 30 mg/kg, ip pretreated for 30 mins followed by IL-6 challenge measured after 4 hrs; format: functional, organism-based; details: not given

| Structure (SMILES) | Activity |
| --- | --- |
| O=C(Nc1n[nH]c2cc(-c3ccc(O)cc3)ccc12)c1ccc(OCCN2CCOCC2)cc1 | Active |
